Experimental data published in patent publication US20110091375A1, “USE OF THE COMBINATION COMPRISING TEMOZOLOMIDE AND TNF-ALPHA FOR TREATING GLIOBLASTOMA” (THE UNIVERSITY OF CHICAGO, priority 2004, published 2011).
“Also recorded” adds a separate entry of the source.

Assays:
Type in all cases: cell-based, human
[1] = tested on: NF-κB; experiment: NF-κB nuclear translocation and DNA binding (nuclear extracts, EMSA)
Description: Confluent cultures of U87 cells were grown in complete medium and then left untreated or treated with 10 ng/mL TNFα for 20 m and 1 h+/−16 h pre-treatment with 100 μM TMZ (or 0.1% DMSO control vehicle). Cells were then washed with 10 mL ice-cold PBS, scraped from the dish, and pelleted by centrifugation at 1000 rpm for 5 m at 4° C. Cell pellets were resuspended in 400 μl of ice-cold buffer A (10 mM HEPES, pH 7.9; 10 mM KCl; 0.1 mM EDTA; 1 mM DTT; 0.5 mM phenylmethysulfonylfluoride [PMSF]; 1 μg/mL leupeptin; 5 μg/mL aprotinin) and allowed to swell on ice for 15 m. Following the addition of 25 μl of 10% NP-40, the suspension was vortexed for 10 s and centrifuged at 14,500 rpm for 1 m at 4° C. Nuclei were resuspended in 50 μl of ice-cold buffer B (20 mM HEPES, pH 7.9; […]; 1 mM EDTA; 1 mM DTT; 1 mM PMSF; 25% glycerol; 1 μg/mL leupeptin; 5 μg/mL aprotinin) and incubated on ice for 15 m. […] Protein concentrations for each sample were determined by the Bradford method (Bio-Rad, Richmond, Calif., USA) and were adjusted to 2 μg/μl by the addition of buffer B. […]
20 μg of whole U87 cell (or nuclear) lysate was subjected to sodium dodecyl sulfate (SDS)-polyacrylamide gel electrophoresis (PAGE). […] Immunoreactive bands were detected by SuperSignal enhanced chemiluminescence (ECL) (Pierce, Rockford, Ill., USA) and exposed to Kodak X-Omat film.

[2] = tested on: U87 cells; experiment: Flow cytometric analysis of apoptosis (fractional DNA content, annexin V binding); conditions: fractional DNA content, TMZ 100 μM
Description: Fractional DNA content: U87 cells (10^5) were plated overnight at 37° C. with 5% CO2. The cells were then treated with TNFα (10 ng/mL) and/or TMZ (100 μM). At 72 h the cells were washed in PBS and fixed in ice-cold 70% (v/v) ethanol. The cells were washed twice and incubated in RNase (1 mg/mL) for 30 m at 37° C., then incubated in propidium iodide (PI) solution (100 ug/mL) for […] at 4° C. Flow cytometric analysis was performed on a FACSort instrument (Becton Dickinson Immunocytometry Systems, San Jose, Calif.), and the data were analyzed using the CellQuest software (Becton Dickinson).
Annexin V binding (van Engeland, M. et al. (1998) Cytometry 31(1):1-9): At 72 h cells were washed in PBS and incubated in the dark for 15 m with binding buffer containing 5 μl of Annexin V-FITC and 5 μl of PI (Annexin V-FITC apoptosis detection kit II). The data was analyzed by Flowjo analysis software (Tree Star Inc., Ashland, Oreg.).
Cells were either un-transfected or co-transfected with pRC-CMV-p65 or pRC-CMV in the presence of a GFP plasmid at a ratio of 4:1. Under these conditions, cells expressing GFP also expressed the co-transfected plasmid (Tang, F. et al. (2002) Mol Cell Biol 22:8571-8579). Cells were then left untreated or treated as described in the figure legends. At 72 h cells were washed in PBS and incubated in the dark for 15 m with binding buffer containing 5 μl of Annexin V-FITC and 5 μl of Propidium iodide (PI). In transfected cells, annexin V binding was assessed in GFP positive cells. Data was analyzed by Flowjo analysis software (Tree Star Inc., Ashland, Oreg., USA) as described in U.S. Provisional Application No. 60/604,251 (Yamini, B. et al. (2004) Cancer Res 64:6381-6384).

[3] = tested on: NF-κB in BxPC-3 pancreatic cancer cells; experiment: NF-κB-responsive luciferase reporter assay, BxPC-3
[4] = tested on: NF-κB in U87 glioma cells; experiment: NF-κB-responsive luciferase reporter assay, U87
Description: U87 cells (5×10^3) were plated overnight and subsequently co-transfected with Ig-κB-Luc (or pE425 GL3) and the Renilla reniformis expression vector, pRL-TK, to normalize transfection efficiency, at a ratio of 10:1 using SuperFectin transfection kit (Qiagen, Valencia, Calif., USA). Twenty-four hours after transfection, the cells were pretreated with TMZ (100 μM) for 16 h, then treated with TNFα (10 ng/mL). Five hours later NF-κB (or Egr-1) and Renilla luciferase activity were measured with the Dual-Luciferase reporter assay system (Promega Corp., Madison, Wis., USA). Relative luciferase was calculated as the ratio of firefly luminescence/Renilla luminescence for each sample.

Cn1nnc2c(C(N)=O)ncn2c1=O [TMZ, temozolomide]
TNFα-induced NF-κB DNA binding [1]: does not directly affect | TNFα-induced NF-κB nuclear translocation ([1]; glioma cells): inhibiting NF-κB nuclear translocation | cell cycle distribution [2]: increase in the percentage of cells in G2/M phase | TNFα-induced NF-κB transcriptional activity [3]: activated | TNFα-induced NF-κB transcriptional activity ([4]; U87, TMZ pre-treatment): dose dependent inhibition; also recorded: completely inhibited | transcriptional activity of NF-κB, TMZ used alone ([4]; glioma cells, no TNFα): slightly increases
